In US6703214B2, “Lipid uptake assays” (Devgen NV, priority 2000, dated 2004):

Columns and labels:
[1] = test system: C. elegans; assay: Fatty acid uptake assay after overnight compound incubation (activation of FATPs), C4-BODIPY-C9 probe; type: in vivo
Protocol: A fixed amount of probe is then distributed in the microtiter wells. The nematodes are incubated for one hour at room temperature in presence or absence of molecules to be tested. The microtiter plate is rinsed 3 to 4 times, using a standard plate washer (Wellwash, Labsystems, Zellik, Belgium), taking care to perform the aspiration sufficiently distant from the bottom of the well to avoid any loss of nematodes remaining at the bottom. The fluorescence intensity is then measured using a fluorescence microtiter plate reader, using a standard set of fluorescein filters.
Retinoic acid and troglutazones are activators of RXR and PPARγ respectively. C. elegans worms were incubated with these compounds in a range from 100 μM to 0.1 μM for a time period between 1 to 6 hours. Fatty acid uptake was measured using the microtiter plate assay described above.
More particularly, constitutive pharynx pumping worms in late L4 stage or young adults were incubated overnight on agar plates with different concentrations of the retinoic acid or troglutazone (e.g. Rosiglitazon). The compounds were added as solutions in 1 ml M9. After overnight incubation, these worms were further incubated for 1 h with 50 μM C4-BODIPY-C9 in 1 ml M9 on the same agar plates. After incubation the worms were washed three times and dispensed with the worm dispenser, up to 50 worms per well in the multi-well plates. Fluorescence intensity was measured using a microtiter plate reader, as described above.

[2] = test system: wild type (N2) C. elegans; assay: Lipid uptake assay with quenched probe (QBFA) in liquid culture after overnight compound incubation on agar plates; type: in vivo; details: L4 stage worms, about 16 h with various concentrations; 10 μM QBFA, fluorescence read after 2 hours; FIG. 21
Protocol: Standard 9 cm agar plates were seeded with E. coli (any strain suitable for use in culture of C. elegans may be used). 1 ml volume of rosiglitazone at various concentrations was added to the plates and the plates seeded with L4 stage C. elegans. After an overnight incubation (approximately 16 h), the C. elegans were isolated and washed three times with approximately 15 ml M9 buffer. The worms were then re-suspended into microtiter plates, at 100 worms per well. Quenched probe (QBFA) was added at a final concentration of 10 μM in a total volume of 100 μl. Fluorescence measurements were taken after 2 hours in an automated plate reader. Typical results are illustrated in FIG. 21.

Row | Compound | effect on fatty acid uptake (in words) ([1]; increased expression of FATP by applying the compound) | increase in fatty acid uptake ([1]; constitutive pharynx pumping worms, late L4/young adults, overnight incubation with compound on agar plates, 1 h with 50 μM C4-BODIPY-C9, FIG. 8) | increase in fatty acid uptake, also observed at low concentration ([1]; only 3 μM of Rosiglitazon applied, otherwise as E1) | effect on lipid uptake (in words) [2]
1 | troglutazone | clearly enhanced fatty acid uptake | – | – | –
2 | CN(CCOc1ccc(CC2SC(=O)NC2=O)cc1)c1ccccn1 (stereo not shown) [Rosiglitazon] | – | 5 fold | 5 fold | have an effect on lipid uptake
